Results reported in PMC4013547 (ACS chemical biology, 2013).

molecular target: Ldtfm (E. faecium L,D-transpeptidase, catalytic domain) (Enterococcus faecium, UniProt Q3Y185); assay: NMR chemical shift perturbation; assay type: binding; settings: covalent; active-site cysteine Cys442; Pocket 1

**Q.** Which “NMR chemical shift perturbation” value does the source give for `C[C@@H](O)[C@H]1C(=O)N2C(C(=O)O)=C(S[C@@H]3CN[C@H](CNS(N)(=O)=O)C3)[C@H](C)[C@H]12` [doripenem] here?
**A.** NMR chemical shift perturbations observed with imipenem, doripenem and meropenem

**Q.** For `C[C@@H](O)[C@H]1C(=O)N2C(C(=O)O)=C(SCCN=CN)C[C@H]12` [imipenem], which “NMR chemical shift perturbation” value is on record?
**A.** NMR chemical shift perturbations observed with imipenem, doripenem and meropenem

**Q.** With `C[C@@H](O)[C@H]1C(=O)N2C(C(=O)O)=C(S[C@@H]3CN[C@H](C(=O)N(C)C)C3)[C@H](C)[C@H]12` [meropenem] as the compound, how does the “NMR chemical shift perturbation” value read?
**A.** NMR chemical shift perturbations observed with imipenem, doripenem and meropenem
